Test results: article PMC7053343, “Small molecule NSC1892 targets the CUL4A/4B-DDB1 interactions and causes impairment of CRL4^DCAF4 E3 ligases to inhibit colorectal cancer cell growth” (International Journal of Biological Sciences, 2020)
pIC50: −log10 of the molar value.

Molecular target: T1, DNA damage-binding protein 1 (DDB1) (Homo sapiens, UniProt Q16531)
T1 construct: with CUL4A
Assay: AlphaScreen disruption of purified His-DDB1/GST-CUL4A interaction; in vitro Ni-NTA pulldown with recombinant proteins

T1 sequence (Q16531 whole entry): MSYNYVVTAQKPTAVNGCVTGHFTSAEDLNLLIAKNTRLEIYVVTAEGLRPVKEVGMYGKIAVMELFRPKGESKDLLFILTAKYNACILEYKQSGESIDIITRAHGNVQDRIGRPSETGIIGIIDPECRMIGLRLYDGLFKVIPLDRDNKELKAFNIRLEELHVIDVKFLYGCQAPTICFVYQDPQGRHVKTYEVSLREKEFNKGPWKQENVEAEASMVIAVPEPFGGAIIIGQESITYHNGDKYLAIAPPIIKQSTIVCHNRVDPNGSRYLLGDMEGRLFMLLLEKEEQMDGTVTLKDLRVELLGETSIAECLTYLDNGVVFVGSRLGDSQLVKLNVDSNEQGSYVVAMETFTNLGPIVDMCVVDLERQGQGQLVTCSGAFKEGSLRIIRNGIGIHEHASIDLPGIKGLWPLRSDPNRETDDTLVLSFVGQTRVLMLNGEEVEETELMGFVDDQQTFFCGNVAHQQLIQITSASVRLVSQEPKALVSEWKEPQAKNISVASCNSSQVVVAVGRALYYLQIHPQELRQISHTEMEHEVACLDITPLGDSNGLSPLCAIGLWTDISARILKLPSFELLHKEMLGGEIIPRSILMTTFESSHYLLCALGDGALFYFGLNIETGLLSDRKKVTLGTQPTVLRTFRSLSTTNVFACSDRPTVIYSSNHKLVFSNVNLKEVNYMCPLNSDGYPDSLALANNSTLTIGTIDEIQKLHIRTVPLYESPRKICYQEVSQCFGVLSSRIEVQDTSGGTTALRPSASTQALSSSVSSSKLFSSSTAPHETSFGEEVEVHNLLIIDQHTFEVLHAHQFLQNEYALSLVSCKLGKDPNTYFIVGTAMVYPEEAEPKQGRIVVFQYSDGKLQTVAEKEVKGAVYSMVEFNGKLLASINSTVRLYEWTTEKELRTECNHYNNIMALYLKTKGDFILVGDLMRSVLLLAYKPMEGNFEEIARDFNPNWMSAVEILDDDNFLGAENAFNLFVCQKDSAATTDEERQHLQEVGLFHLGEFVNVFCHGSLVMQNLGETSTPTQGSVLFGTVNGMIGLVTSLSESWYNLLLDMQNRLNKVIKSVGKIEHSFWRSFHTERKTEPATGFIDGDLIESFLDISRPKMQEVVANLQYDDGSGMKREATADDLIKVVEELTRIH
T1 sequence (Q13619 whole entry partner): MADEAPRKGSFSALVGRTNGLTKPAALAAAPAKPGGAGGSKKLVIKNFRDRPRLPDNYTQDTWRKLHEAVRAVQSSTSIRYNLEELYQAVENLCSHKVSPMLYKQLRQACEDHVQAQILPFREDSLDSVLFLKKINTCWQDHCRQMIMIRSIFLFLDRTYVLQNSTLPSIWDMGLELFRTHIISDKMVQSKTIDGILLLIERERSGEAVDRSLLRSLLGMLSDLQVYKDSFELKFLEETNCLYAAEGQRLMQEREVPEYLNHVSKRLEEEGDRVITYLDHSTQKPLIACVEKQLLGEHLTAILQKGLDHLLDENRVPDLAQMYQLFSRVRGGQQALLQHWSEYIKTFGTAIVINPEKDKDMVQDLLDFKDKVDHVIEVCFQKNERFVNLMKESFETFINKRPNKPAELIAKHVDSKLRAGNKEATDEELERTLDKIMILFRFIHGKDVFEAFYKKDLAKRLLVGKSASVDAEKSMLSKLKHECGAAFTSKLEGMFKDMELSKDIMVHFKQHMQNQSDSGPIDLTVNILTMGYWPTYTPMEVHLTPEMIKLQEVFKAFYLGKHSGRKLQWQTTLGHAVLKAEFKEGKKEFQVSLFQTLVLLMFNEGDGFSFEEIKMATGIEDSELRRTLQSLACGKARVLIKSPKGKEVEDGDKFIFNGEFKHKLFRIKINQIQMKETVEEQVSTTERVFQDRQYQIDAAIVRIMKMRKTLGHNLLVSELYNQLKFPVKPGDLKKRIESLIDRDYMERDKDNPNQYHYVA

CC(=O)O[C@@H]1c2occc2[C@@H](O)C[C@H]2[C@]3(C)CC[C@H]4C(C)(C)CCC[C@]4(C)[C@H]3C[C@@]21C [NSC1892] was tested, and the pIC50 was 5.74.
